Reference: US20110230493A1, “1-OXA-8-Azaspiro [4,5] Decabe-8-Carboxamide Compounds as FAAH Inhibitors” (Pfizer Inc., priority 2008, published 2011)

Key:
human FAAH = molecular target: T1, human FAAH (Homo sapiens, UniProt O00519); test: FAAH assay, human FAAH enzyme inactivation (kinact/Ki); assay type: biochemical; settings: oleamide 50 μM, 30° C.; for kinact/KI: pH 7.4, in vitro, read-out: hFAAH kinact/Ki; for hFAAH kinact/Ki: in vitro, pH 7.4
T1 construct: made in house; host or cells: E. coli
T1 sequence (O00519 1-579): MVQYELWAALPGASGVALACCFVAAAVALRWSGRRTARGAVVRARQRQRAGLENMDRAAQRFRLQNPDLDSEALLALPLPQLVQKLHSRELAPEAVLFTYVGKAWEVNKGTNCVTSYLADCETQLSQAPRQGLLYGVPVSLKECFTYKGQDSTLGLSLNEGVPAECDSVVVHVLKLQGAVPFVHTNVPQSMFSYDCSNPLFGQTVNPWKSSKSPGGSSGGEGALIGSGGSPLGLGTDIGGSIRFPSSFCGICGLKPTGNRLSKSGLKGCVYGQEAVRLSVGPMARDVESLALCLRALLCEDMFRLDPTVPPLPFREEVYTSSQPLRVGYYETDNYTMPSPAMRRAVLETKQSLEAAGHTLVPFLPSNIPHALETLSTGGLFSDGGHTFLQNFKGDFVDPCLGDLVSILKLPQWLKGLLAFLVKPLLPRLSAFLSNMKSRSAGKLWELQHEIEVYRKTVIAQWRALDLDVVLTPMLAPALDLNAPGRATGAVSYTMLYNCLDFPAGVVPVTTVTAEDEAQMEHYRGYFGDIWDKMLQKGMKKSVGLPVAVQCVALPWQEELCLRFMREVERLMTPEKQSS
Procedure: (§1) The FAAH assay was carried out in 384-well clear polystyrene plates (Evergreen Scientific) in a total volume of 50 μl per well in a manner similar to that described by Mileni et al., Proc. Nat. Acad. Sci. 2008, 105, 12820-12824. All percents are by volume. Serial dilutions of compound were initially prepared in 100% DMSO, and then diluted two-fold into HPLC-grade H2O to give 50% DMSO. To each well, was placed the reaction mixture (40 μl) containing 1-4 nM FAAH, 50 mM NaPi, pH 7.4, 3 mM α-ketoglutarate, 0.15 mM NADH, 7.5 U/ml glutamate dehydrogenase, 2 mM ADP, 1 mM EDTA, and 0.1% Triton X-100 (The concentration shown for each component is the final concentration in the assay). To this mixture, was added 5 μl of a compound of Examples 1 to 101 at various concentrations in 50% DMSO (or 5 μl 50% DMSO for controls). This was immediately followed by the addition of 5 μl oleamide (500 μM) dissolved in 75% EtOH/25% DMSO and the reaction mixture was mixed for 1.5 min. The final concentrations of DMSO and EtOH in the assay were each 7.5%. The reactions were incubated at 30° C. and the absorbance at 340 nm was collected over a period of 90 min with readings taken in 30-second intervals using SpectraMax Plus^384 Microplate Spectrophotometer (Molecular Devices, Sunnyvale, Calif.). The human FAAH and rat FAAH used in the assay was prepared as described in the patent application WO 2006/067613 using wild-type E. coli cells transformed in St. Louis, Mo., U.S.A. The purity of the enzyme was greater than 98% based on an analysis by SDS-polyacrylamide gel electrophoresis followed by Coomassie Blue staining.
(§2) Reaction progress curves were corrected for the non-enzymatic oxidation of NADH by subtraction of absorbancies at each time point obtained from control reactions containing no FAAH enzyme. The loss of enzyme activity as a function of time is well-described by the following mathematical equation (1) for a mono-exponential decay: […]
(§3) where At represents the absorbance at time t, A0 represents the absorbance at time zero, and C represents a constant. Observed rates of enzyme inactivation (kobs) were determined from the non-linear reaction progress curves by fitting the corrected absorbancies to an equation for a mono-exponential decay using the third-party Microsoft Excel plug-in, XLfit (IDBS Limited). Secondary plots of kobs vs. inhibitor concentration were prepared from kobs values obtained from progress curves. Second-order rates for enzyme inactivation, expressed as kinact/Ki (M^−1 s^−1), were calculated from the slopes from linear regression analysis of the secondary plot of kobs vs. inhibitor concentration as defined in following equation (2), where [I]<<Ki:
(§4) The concentration of substrate in the assay was equal to the Km for oleamide of 50 μM. Therefore, reported kinact/Ki values are obtained by multiplying resulting slopes by a factor of two (i.e. slope=kinact/(Ki*2)).
(§5) Table 1, below, lists human FAAH (hFAAH) and rat FAAH (rFAAH) enzyme inhibition values for Examples 1-101 as a ratio of kinact/Ki (M^−1 s^−1).

rat FAAH = molecular target: T2, rat FAAH (Rattus norvegicus, UniProt P97612); test: FAAH assay, rat FAAH enzyme inactivation (kinact/Ki); assay type: biochemical; settings: oleamide 50 μM, 30° C.; for kinact/KI: pH 7.4, in vitro, read-out: rFAAH kinact/Ki; for rFAAH kinact/Ki: in vitro, pH 7.4
T2 construct: made in house; host or cells: E. coli
T2 sequence (P97612 1-579): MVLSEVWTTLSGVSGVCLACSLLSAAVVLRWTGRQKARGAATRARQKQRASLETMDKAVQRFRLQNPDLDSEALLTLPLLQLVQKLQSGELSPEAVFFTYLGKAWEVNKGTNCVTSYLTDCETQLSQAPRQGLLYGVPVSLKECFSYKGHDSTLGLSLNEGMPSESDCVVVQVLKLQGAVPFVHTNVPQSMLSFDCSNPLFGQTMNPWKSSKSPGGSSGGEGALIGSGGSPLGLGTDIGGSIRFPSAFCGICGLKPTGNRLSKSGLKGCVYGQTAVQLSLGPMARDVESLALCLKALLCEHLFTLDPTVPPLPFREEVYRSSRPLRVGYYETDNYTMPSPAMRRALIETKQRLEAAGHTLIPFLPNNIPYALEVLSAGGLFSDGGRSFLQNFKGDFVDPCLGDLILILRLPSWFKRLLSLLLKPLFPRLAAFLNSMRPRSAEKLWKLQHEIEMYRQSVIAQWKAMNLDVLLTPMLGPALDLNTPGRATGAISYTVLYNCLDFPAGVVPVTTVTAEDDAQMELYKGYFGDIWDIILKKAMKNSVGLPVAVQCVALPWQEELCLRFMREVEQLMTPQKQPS
Procedure: as §1, §2, §3, §4, §5

Compound	kinact/KI (human FAAH) [M⁻¹ s⁻¹]	kinact/KI (rat FAAH) [M⁻¹ s⁻¹]	hFAAH kinact/Ki (human FAAH) [M⁻¹ s⁻¹]	rFAAH kinact/Ki (rat FAAH) [M⁻¹ s⁻¹]
Cc1noc(NC(=O)N2CCC3(CC2)CC(c2ccc(F)c(Cl)c2)CO3)c1C (racemic) [Example 28, (3RS)-3-(3-chloro-4-fluorophenyl)-N-(3,4-dimethylisoxazol-5-yl)-1-oxa-8-azaspiro[4.5]decane-8-carboxamide]	1580	3950	–	–
Cc1noc(NC(=O)N2CCC3(CC2)CC(c2ccc(OCc4cccc(C(F)(F)F)n4)cc2)CO3)c1C (racemic) [Example 29, (3RS)-N-(3,4-dimethylisoxazol-5-yl)-3-(4-{[6-(trifluoromethyl)pyridin-2-yl]methoxy}phenyl)-1-oxa-8-azaspiro[4.5]decane-8-carboxamide]	2110	3230	–	–
Cc1noc(NC(=O)N2CCC3(CC2)CC(c2ccc(OCc4ccc(F)c(F)c4)cc2)CO3)c1C (racemic) [Example 30, (3RS)-3-{4-[(3,4-difluorobenzyl)oxy]phenyl}-N-(3,4-dimethylisoxazol-5-yl)-1-oxa-8-azaspiro[4.5]decane-8-carboxamide]	7380	5800	–	–
Cc1noc(NC(=O)N2CCC3(CC2)CC(c2ccc(OCc4cc(F)ccc4F)cc2)CO3)c1C (racemic) [Example 31, (3RS)-3-{4-[(2,5-difluorobenzyl)oxy]phenyl}-N-(3,4-dimethylisoxazol-5-yl)-1-oxa-8-azaspiro[4.5]decane-8-carboxamide]	3580	3220	–	–
Cc1noc(NC(=O)N2CCC3(CC2)CC(c2ccc(OCc4ccc(C(F)(F)F)cn4)cc2)CO3)c1C (racemic) [Example 32, (3RS)-N-(3,4-dimethylisoxazol-5-yl)-3-(4-{[5-(trifluoromethyl)pyridin-2-yl]methoxy}phenyl)-1-oxa-8-azaspiro[4.5]decane-8-carboxamide]	4120	7580	–	–
Cc1noc(NC(=O)N2CCC3(CC2)CC(c2cccc(-c4ccc(F)c(F)c4)c2)CO3)c1C (racemic) [Example 53, (3RS)-3-(3′,4′-difluorobiphenyl-3-yl)-N-(3,4-dimethylisoxazol-5-yl)-1-oxa-8-azaspiro[4.5]decane-8-carboxamide]	2020	1470	–	–
Cc1noc(NC(=O)N2CCC3(CC2)CC(c2cccc(-c4ccc(F)cc4)c2)CO3)c1C (racemic) [Example 54, (3RS)-N-(3,4-dimethylisoxazol-5-yl)-3-(4′-fluorobiphenyl-3-yl)-1-oxa-8-azaspiro[4.5]decane-8-carboxamide]	2040	1110	–	–
Cc1noc(NC(=O)N2CCC3(CC2)CC(c2cccc(-c4ccc(Cl)cc4)c2)CO3)c1C (racemic) [Example 55, (3RS)-3-(4′-chlorobiphenyl-3-yl)-N-(3,4-dimethylisoxazol-5-yl)-1-oxa-8-azaspiro[4.5]decane-8-carboxamide]	2070	1160	–	–
Cc1noc(NC(=O)N2CCC3(CC2)CC(c2cccc(-c4ccc(OC(F)(F)F)cc4)c2)CO3)c1C (racemic) [Example 56, (3RS)-N-(3,4-dimethylisoxazol-5-yl)-3-[4′-(trifluoromethoxy)biphenyl-3-yl]-1-oxa-8-azaspiro[4.5]decane-8-carboxamide]	1880	1140	–	–
Cc1noc(NC(=O)N2CCC3(CC2)CC(c2cccc(C(F)(F)F)c2)CO3)c1C (racemic) [Example 65, (3RS)—N-(3,4-dimethylisoxazol-5-yl)-3-[3-(trifluoromethyl)phenyl]-1-oxa-8-azaspiro[4.5]decane-8-carboxamide]	1100	2630	–	–
Cc1noc(NC(=O)N2CCC3(CC2)CC(c2noc(-c4ccc(OC(F)(F)F)cc4)n2)CO3)c1C (racemic) [Example 71, (3RS)—N-(3,4-dimethylisoxazol-5-yl)-3-{5-[4-(trifluoromethoxy)phenyl]-1,2,4-oxadiazol-3-yl}-1-oxa-8-azaspiro[4.5]decane-8-carboxamide]	2610	1020	–	–
Cc1noc(NC(=O)N2CCC3(CC2)CC(c2noc(-c4ccc(C(F)(F)F)cc4)n2)CO3)c1C (racemic) [Example 74, (3RS)—N-(3,4-dimethylisoxazol-5-yl)-3-{5-[4-(trifluoromethyl)phenyl]-1,2,4-oxadiazol-3-yl}-1-oxa-8-azaspiro[4.5]decane-8-carboxamide]	2380	1140	–	–
Cn1nnnc1NC(=O)N1CCC2(CC1)CC(c1cccc(C(F)(F)F)c1)CO2 (racemic) [Example 92]	5240	3120	–	–
Cc1noc(NC(=O)N2CCC3(CC2)CC(F)(c2cc(F)cc(Cl)c2)CO3)c1C (racemic) [Example 100, (3RS)-3-(3-chloro-5-fluorophenyl)-N-(3,4-dimethylisoxazol-5-yl)-3-fluoro-1-oxa-8-azaspiro[4.5]decane-8-carboxamide]	871	1120	–	–
O=C(Nc1noc2ccccc12)N1CCC2(CC1)CC(c1cccc(Oc3ccc(Cl)cn3)c1)CO2 (racemic) [Example 101, (3RS)—N-1,2-benzisoxazol-3-yl-3-{3-[(5-chloropyridin-2-yl)oxy]phenyl}-1-oxa-8-azaspiro[4.5]decane-8-carboxamide]	1780	8330	–	–
Cc1noc(NC(=O)N2CCC3(CC2)CC(c2ccc(Cl)c(Cl)c2)CO3)c1C (single isomer, unassigned) [Example 38, 3-(3,4-dichlorophenyl)-N-(3,4-dimethylisoxazol-5-yl)-1-oxa-8-azaspiro[4.5]decane-8-carboxamide]	–	–	2050	2380
Cc1noc(NC(=O)N2CCC3(CC2)CC(c2cc(F)cc(Cl)c2)CO3)c1C (single isomer, unassigned) [Example 40, 3-(3-chloro-5-fluorophenyl)-N-(3,4-dimethylisoxazol-5-yl)-1-oxa-8-azaspiro[4.5]decane-8-carboxamide]	–	–	2470	3740
